Assay results published in patent US7855191B2, “Agent having a destructive effect on malignant tumors and method for the production thereof” (C.Y.L. Pharmazeutika GmbH, priority 2002, dated 2010).

Key:
[1] = Compatibility of selenium compounds with alpha-ketoglutaric acid in the preparation; type: physicochemical; conditions: for reaction / compatibility with alpha-ketoglutaric acid: on addition to the preparation of EP 326826 B1
Protocol: Thus initially the research was carried out by the addition of selenium in the form of selenite. […] Attempts were made to suppress this redox reaction by incorporating the selenium in organic compounds. As such a compound, finally seleno-methionine was selected. […] However, with the addition of this compound as a complement to the composition of European Patent 326826 B1 there is a danger that this substance will be incorporated into body proteins, and effect which might reduce the desired effect of the N-acetyl-seleno-L-methionine or cause the effect of that compound to be completely lost.

malignant brain tumors = conditions: cited from earlier work
mammary carcinoma = conditions: rats with 1-methyl-1-nitro urea induced mammary cancer; cited from earlier work

Row | SMILES | reaction / compatibility with alpha-ketoglutaric acid [1] | general well-being of the patients (malignant brain tumors; manifested by erythrocyte number, hemoglobin value, thrombocyte count) | patients who felt a reduction in unpleasant side effects (malignant brain tumors; patients with malignant brain tumors) | density of the intra tumoral microvessels in the mammary carcinoma (mammary carcinoma) | Maillard reaction with ketoglutaric acid ([1]; especially at the higher temperatures of heat sterilization)
1 | O=[Se]([O-])[O-].[Na+].[Na+] [selenite, Na-selenite] | amorphous selenium precipitated out | improvement in the general well-being | 76% | significantly reduced | –
2 | C[Se]CC[C@H](N)C(=O)O [seleno-methionine] | does not react with the alphaketoglutaric acid | – | – | – | undergoes a Maillard reaction with the ketoglutaric acid
